Source: US20220280594A1, “APPLICATION OF POLYPEPTIDE OR DERIVATIVE THEREOF” (CHENGDU HUITAI BIOMEDICINE CO., LTD., priority 2019, published 2022)
Ends that are not written are not given here. PEG = not defined here

Key:
Assay type in all cases: cell-based
[1] = system: human melanoma cells (A375); assay: scratch assay, migration of A375 cells; conditions: A375, 10 μM, 48 hours; control group 44.03 ± 6.21
How it was run: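 Monolayers scratched, washed with PBS and cultured 48 hours in 2% FBS medium with polypeptides N1-N54 at 10 μM or PBS control, three wells per group. Migration rate (%) = (original − current scratch width)/original width×100, from imaged scratch widths.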

[2] = system: human pancreatic cancer cells (PANC-1); assay: scratch assay, migration of PANC-1 cells; conditions: PANC-1, 10 μM, 48 hours; control group 66.65 ± 3.37
How it was run: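 PANC-1 monolayers were scratched, then cultured for 48 h with 10 μM test compound in 2% FBS medium, in three parallel wells per group against a PBS control. Migration rate (%) was calculated as (original minus current scratch width) / original width × 100, from imaged wells.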

[3] = system: human colon cancer cells (HCT-116); assay: scratch assay, migration of HCT-116 cells; conditions: HCT-116, 10 μM, 48 hours; control group 47.78 ± 6.07
How it was run: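 Confluent HCT-116 monolayers were scratched, washed and cultured 48 h in 2% FBS medium with peptide at 10 μM versus PBS control, triplicate wells. Migration rate (%) = (original minus current scratch width)/original width × 100, from at least 3 images per well.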

[4] = system: human prostate cancer cells (22RV1); assay: scratch assay, migration of 22RV1 cells; conditions: 22RV1, 10 μM, 48 hours; control group 25.41 ± 5.01
How it was run: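 22RV1 monolayers (seeded 1-2×10^5 cells/well) were scratched, washed, then given 2% FBS medium with 10 μM polypeptide or PBS, triplicate wells, for 48 h. Migration rate (%) = (original − current scratch width)/original width ×100, from ≥3 images per well.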

[5] = system: human pharyngeal squamous-cell carcinoma cells (Fadu); assay: scratch assay, migration of Fadu cells; conditions: 10 μM, 48 hours, control group 28.76 ± 4.08
How it was run: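 Confluent Fadu monolayers scratched, then cultured 48 h with 10 μM polypeptide in medium with 2% FBS; PBS control, triplicate wells. Migration rate (%) = (original − current scratch width)/original width × 100, from ≥3 images per well.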

[6] = system: human liver adenocarcinoma cells (SK-HEP-1); assay: transwell migration assay, SK-HEP-1 cells; conditions: SK-HEP-1 transwell migration, 10 μM, 24 hours; control group 1 782 ± 108, control group 2 768 ± 86
How it was run: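 SK-HEP-1 cells in serum-free medium seeded in upper transwell chamber (2-3×10^5 cells/mL) over complete medium; after 4-5 h at 37 °C, 5% CO2, peptide added at 10 μM final in upper chamber. After 24 h, migrated cells fixed in methanol, crystal-violet stained, imaged and counted.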

[7] = system: human breast cancer cells (MDA-MB-231); assay: scratch assay, migration of MDA-MB-231 cells; conditions: MDA-MB-231, 10 μM, 48 hours; control group 36.19 ± 5.15
How it was run: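 MDA-MB-231 monolayers (1-2×10^5 cells/well) were scratched, then kept 48 h in medium with 2% FBS containing polypeptide at 10 μM, with a PBS control, in triplicate wells. Migration rate (%) was taken from scratch width: (original − current)/original ×100.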

[8] = system: human liver adenocarcinoma cells (SK-HEP-1); assay: transwell invasion assay, SK-HEP-1 cells; conditions: SK-HEP-1 transwell invasion, 10 μM, 24 hours; control group 767 ± 91
How it was run: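 Serum-free SK-HEP-1 cells were seeded in matrigel-coated upper chambers over complete medium. After 4-5 h, peptide was added to the upper chamber at 10 μM final. Following 24 h at 37° C., invaded cells were fixed, crystal violet-stained, imaged and counted.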

Row | Substance | Migration rate (%) (mean ± SD, P) [1] | Migration rate (%) (mean ± SD, P) [2] | Migration rate (%) (mean ± SD, P) [3] | Migration rate (%) (mean ± SD, P) [4] | Migration rate (%) (mean ± SD, P) [5] | Number of cells (mean ± SD, P), migrated cells [6] | Migration rate (%) (mean ± SD, P) [7] | Number of cells (mean ± SD, P), invaded cells [8]
1 | N40: SEQ ID NO: 1 with deletion of positions 1-5 and 15-18, PEG at the amino terminal, two amino acids added at the carboxyl terminal ({PEG}-LAKENVTQDRC; reading uncertain) | 6.47 ± 1.39,*** % | 13.24 ± 8.56,*** % | 2.19 ± 1.45,*** % | 6.65 ± 2.54,** % | 10.25 ± 2.76,** % | 290 ± 33,**** | 21.12 ± 4.15,* % | 123 ± 26,****
2 | N41: SEQ ID NO: 1 with addition of two amino acids at the amino terminal, deletion of position 18, PEG at the carboxyl terminal (FRYRVRFLAKENVTQDAED-{PEG}; reading uncertain) | 10.01 ± 2.07,*** % | 14.44 ± 7.40,*** % | 5.78 ± 2.76,*** % | 7.83 ± 1.84,** % | 12.00 ± 4.73,** % | 280 ± 24,**** | 14.75 ± 4.28,** % | 58 ± 12,****
3 | N42: SEQ ID NO: 1 with deletion of positions 1-5 and 15-18, PEG at the amino terminal, one amino acid added at the carboxyl terminal ({PEG}-LAKENVTQDR; reading uncertain) | 8.92 ± 2.25,*** % | 24.26 ± 7.91,** % | 6.75 ± 2.33,*** % | 5.89 ± 1.02,** % | 18.63 ± 2.79,* % | 106 ± 17,**** | 17.91 ± 3.66,** % | 149 ± 29,****
4 | N43: SEQ ID NO: 1 with addition of one amino acid at the amino terminal, deletion of position 18, PEG at the carboxyl terminal (RYRVRFLAKENVTQDAED-{PEG}; reading uncertain) | 11.22 ± 1.74,*** % | 18.87 ± 6.90,*** % | 4.56 ± 1.52,*** % | 6.57 ± 1.35,** % | 10.04 ± 2.50,** % | 157 ± 29,**** | 12.19 ± 5.70,** % | 107 ± 16,****
5 | N45: SEQ ID NO: 1 with V11R, deletion of positions 1-5 and 15-18, PEG modification at the carboxyl terminal (LAKENRTQD-{PEG}; reading uncertain) | 18.79 ± 2.28,** % | 45.16 ± 5.74,** % | 28.34 ± 2.87,** % | 11.63 ± 2.82,* % | 9.34 ± 2.86,*** % | 162 ± 15,**** | 13.02 ± 4.54,** % | 155 ± 10,****
6 | N47: SEQ ID NO: 1 with N18R, deletion of positions 1-2, one amino acid added and PEG at the carboxyl terminal (VRFLAKENVTQDAEDRC-{PEG}; reading uncertain) | 8.82 ± 2.49,*** % | 36.05 ± 5.62,** % | 18.92 ± 2.11,** % | 5.92 ± 2.53,** % | 10.27 ± 4.61,*** % | 179 ± 17,**** | 21.82 ± 4.11,* % | 85 ± 16,****
7 | N48: SEQ ID NO: 1 with A7R, deletion of position 11 and position 18, PEG modification at the carboxyl terminal (YRVRFLRKENTQDAED-{PEG}; reading uncertain) | 9.09 ± 2.23,*** % | 20.60 ± 4.71,*** % | 18.03 ± 4.62,** % | 5.61 ± 3.14,** % | 8.78 ± 4.34,*** % | 374 ± 22,*** | 13.06 ± 3.2,** % | 109 ± 10,****
8 | N49: SEQ ID NO: 1 with A7R, deletion of positions 1-2 and position 18, PEG modification at the carboxyl terminal (VRFLRKENVTQDAED-{PEG}; reading uncertain) | 6.51 ± 1.53,*** % | 17.71 ± 7.65,*** % | 18.84 ± 2.99,** % | 6.18 ± 1.89,** % | 6.29 ± 2.62,*** % | 137 ± 11,**** | 13.41 ± 3.12,** % | 335 ± 32,***
9 | N50: SEQ ID NO: 1 with N18R, addition of 2 amino acid at the carboxyl terminal, PEG modification at the amino terminal ({PEG}-YRVRFLAKENVTQDAEDRCT; reading uncertain) | 15.97 ± 2.33,** % | 14.92 ± 8.62,*** % | 17.04 ± 4.96,** % | 6.20 ± 3.31,** % | 5.44 ± 1.44,*** % | 192 ± 16,**** | 14.46 ± 5.73,** % | 243 ± 46,****
10 | N51: SEQ ID NO: 1 with A15R, one amino acid added at each terminal, PEG modification at the amino terminal ({PEG}-FYRVRFLAKENVTQDREDNC; reading uncertain) | 17.96 ± 3.20,** % | 20.85 ± 8.10,*** % | 16.11 ± 3.20,** % | 5.23 ± 2.42,** % | 8.71 ± 1.79,*** % | 306 ± 46,*** | 14.5 ± 2.68,** % | 248 ± 39,****
11 | N52: SEQ ID NO: 1 with N18R, addition of two amino acids and PEG modification at the carboxyl terminal (YRVRFLAKENVTQDAEDRCT-{PEG}; reading uncertain) | 19.57 ± 2.21,** % | 23.11 ± 4.27,*** % | 18.71 ± 3.59,** % | 5.43 ± 1.97,** % | 7.76 ± 2.08,*** % | 318 ± 37,*** | 13.19 ± 4.84,** % | 132 ± 29,****
12 | N53: SEQ ID NO: 1 with A15R, one amino acid added at each terminal, PEG modification at the carboxyl terminal (FYRVRFLAKENVTQDREDNC-{PEG}; reading uncertain) | 18.83 ± 4.71,** % | 15.85 ± 7.32,*** % | 14.42 ± 3.21,*** % | 10.75 ± 3.22,* % | 13.8 ± 3.05,** % | 265 ± 32,**** | 18.05 ± 6.08,* % | 143 ± 19,****
